Series [1] concerns the target T1, platelet thromboxane synthetase (Homo sapiens, UniProt P24557).
T1 construct: endogenous in cells; host or cells: washed platelets from platelet-rich plasma of venous blood
T1 sequence (P24557 1-533): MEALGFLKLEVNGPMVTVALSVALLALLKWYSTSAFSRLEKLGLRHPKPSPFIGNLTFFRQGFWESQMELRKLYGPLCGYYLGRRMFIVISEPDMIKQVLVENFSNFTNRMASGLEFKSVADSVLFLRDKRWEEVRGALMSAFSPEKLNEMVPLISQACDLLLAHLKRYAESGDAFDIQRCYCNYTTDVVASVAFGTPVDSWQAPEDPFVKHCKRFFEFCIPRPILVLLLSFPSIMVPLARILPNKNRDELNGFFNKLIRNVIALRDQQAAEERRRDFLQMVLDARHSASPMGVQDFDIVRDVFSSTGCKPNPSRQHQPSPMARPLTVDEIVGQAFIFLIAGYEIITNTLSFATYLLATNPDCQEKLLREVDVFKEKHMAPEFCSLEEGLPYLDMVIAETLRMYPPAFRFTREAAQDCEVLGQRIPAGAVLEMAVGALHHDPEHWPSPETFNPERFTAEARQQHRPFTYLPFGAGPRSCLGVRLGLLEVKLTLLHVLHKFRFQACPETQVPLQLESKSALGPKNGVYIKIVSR
The series is described as follows: Inhibition of platelet thromboxane synthetase (14C-arachidonic acid incubated with washed platelet suspension, TLC). Format: cell-based. As to conditions: for IC50: 14C-arachidonic acid, 10 min, 37° C., pH 7.5, read-out: 50% inhibitory concentration (IC50). Here is the method:
1.1 Inhibition of platelet thromboxane synthetase
Platelet rich plasma (PRP) is prepared by centrifugation of venous blood at 150 g×10 min. The platelets are sedimented at 2000 g×20 min. and washed in a tris-HCl buffer at pH 7.5 (15 mM) containing EDTA (1.5 mM), NaCl, (150 mM) and KCl (5 mM). The platelet pellet is then suspended in a volume of tris-HCl (50 mM) at pH 7.5 corresponding to one-half the original PRP volume. Aliquots of platelet suspension (0.5 ml) are incubated with 1 μg ^14 C-arachidonic acid (specific activity=50 mCi/mmole) as the Na salt for 10 min. at 37° C. in the presence or the absence of test material. On completion of the reaction, the incubate is cooled to 0°-4° C., made acidic and salted by addition of citric acid and NaCl and then extracted with 2×2 ml ethyl acetate. A PGE2 standard is added to the extract which, after evaporation to dryness, is submitted to a bidimensional chromatography over a thin layer of silica (Merck F 254) in the systems: (1) benzene/dioxan/acetic acid (60:30:3); (2) chloroform/methanol/acetic acid/water (90:8:1:0.8).
The PGE2 standard is visualized with phosphomolybdic acid in the hot. The radioactivity corresponding to the metabolites of arachidonic acid is measured with a Berthold scanner. […]

Series [2] relates to thromboxane synthesis. As to the kind of experiment: Inhibition of thromboxane synthesis in collagen-stimulated PRP (thromboxane B2 radioimmunoassay). Format: cell-based, human. As to conditions: collagen 20 μg, control 900. Here is the method:
(§1) 3--Inhibition of collagen-induced platelet aggregation and determination of the inhibition of thromboxane synthesis.
(§2) Venous blood sampled from volunteers is collected on sodium citrate. The platelet rich plasma (PRP) is prepared by centrifugation at 150 g×10 min.
(§3) 300 μl PRP are incubated in siliconized tubes in an aggregometer in the presence or the absence of test material dissolved in 100 μl buffer, and 20 μg collagen (Stago) are then added. Platelet aggregation is recorded by the decrease of the optical density. After 4 minutes, an acetylsalicylic acid solution (2×10^-4 M final) is added to block the synthesis of prostanoids, and thromboxane B2 is titrated in the liquid phase of the incubate by radioimmunoassay.

The test system of series [3] is collagen-induced platelet aggregation. As to the kind of experiment: Inhibition of collagen-induced platelet aggregation. The format is cell-based. As to conditions: Homo sapiens, collagen 20 μg, control 100. Here is the method:
as §1, §2, §3

Series [4] is described as follows: Acute toxicity, LD50 on intraperitoneal administration to Swiss mice. Particulars: mouse, in vivo, ip, mean ± 5% confidence interval. From the text: (§4) In Table VI are set forth results of the determination of the LD50 of Compound A on intraperitoneal administration to Wistar rats and Swiss mice.
Series [5] in a line: Bleeding time (ear) in rabbits. Format: in vivo, rabbit. As to conditions: 5 mg/kg subcutaneous, mean ± standard deviation. Here is the method: 2.2 Bleeding time (ear) in rabbits
Groups of 3 male rabbits are treated subcutaneously with the test materials. Bleeding time (BT) is determined just before, and then 2 hours and 4 hours after their administration according to a standard procedure, by a "blind" acting experimenter.

Series [6] can be described thus: Acute toxicity, LD50 on intraperitoneal administration to Wistar rats. Particulars: rat, in vivo, ip, mean ± 5% confidence interval.
Description: as §4

Series [7] deals with arachidonic acid-induced platelet aggregation. The series is described as follows: Ex vivo platelet aggregation in rabbits (arachidonic acid-induced). The arrangement: species or system rabbit. Particulars: 5 mg/kg subcutaneous, two consecutive days, 2 hrs after second administration, arachidonic acid 2 mM. Here is the method: 2.1 Ex vivo platelet aggregation in rabbits
Groups of 3 male rabbits are treated subcutaneously for two consecutive days and their plasma is taken two hrs after the second administration. Arachidonic acid-induced (2 mM) platelet aggregation is measured by the turbidimetric method according to Born.

Each structure is given as a SMILES string. Counter-ions that a name gives are not always drawn.

The record followed here is patent US4407812A, “Etheral imidazoles and use in treatment of thromboses” (Laboratoires Chauvin-Blache, priority 1980, dated 1983).

With `CCCCCC(/C=C/n1ccnc1)OCc1ccccn1` (stereo not drawn) [G, (E)-1-(3-hydroxy-octen-1-yl)imidazole 2-pyridyl methyl ether fumarate], the IC50 in series [1] (platelet suspension) was 1500 nM.

Regarding `c1c[nH]cn1` [Imidazole, imidazole], the “inhibition of the formation of thromboxane A2 (FIG. 2)” value in series [1] (measured by its stable degradation product) is on record as “inhibits the formation of thromboxane A2”. Besides, in series [1] (platelet suspension), the “PGE2 formed concomitantly to thromboxane inhibition (FIG. 2)” value was “increasing amounts of PGE2 are formed” and the IC50 came to 50000 nM.

`CCCCCC(/C=C/n1ccnc1)OC(=O)c1cccnc1` (stereo not drawn) [Compound B, (E)-1-(3-hydroxy-octen-1-yl)imidazole nicotinic ester dihydrochloride]: the “T × B2 formed” value was found to be 100 pmole/ml PRP in series [2] (10^-5 M) and 400 pmole/ml PRP in series [2] (10^-6 M). The molecule also came in with an activity at 10 µM in series [3] (10^-5 M) of 7%. Also, the activity at 1 µM in series [3] (10^-6 M) amounted to 50%. Further, the IC50 in series [1] (platelet suspension) was found to be 1000 nM.

On to `CCCCCC(=O)OC(/C=C/n1ccnc1)CCCCC` (stereo not drawn) [E], for which the IC50 in series [1] (platelet suspension) turned out to be 1500 nM.

Take `CCCCCC(/C=C/n1ccnc1)OC(=O)c1ccccc1` (stereo not drawn) [C]: the IC50 in series [1] (platelet suspension) was found to be 1500 nM.

As to `CCCCCC(/C=C/n1ccnc1)OCc1ccccc1` (stereo not drawn) [F], in series [1] (platelet suspension), the IC50 turned out to be 1000 nM.

What is called LD50 is the dose expected to kill half of the subjects tested. A higher LD50 goes with lower toxicity. `CCCCCC(O)/C=C/n1ccnc1` (racemic) [Compound A, (E)-1-(3-hydroxy-octen-1-yl)imidazole (racemic)]: the median lethal dose (LD50) came to 164 ± 6 mg/kg in series [4] (F), 166 ± 7 mg/kg in series [4] (M), 250 ± 16 mg/kg in series [6] (F) and 270 ± 12 mg/kg in series [6] (M). In addition, the “Bleeding time, Time 2 hours” value in series [5] (2 hours after administration, controls 85 ± 31) worked out at 165 ± 38 s. For the same molecule, the “Bleeding time, Time 4 hours” value in series [5] (4 hours after administration, controls 87 ± 29) turned out to be 102 ± 19 s. In series [5] (just before administration, controls 70 ± 23), the “Bleeding time, Time 0” value is 80 ± 27 s. Moreover, the IC50 in series [1] (platelet suspension) stood at 2500 nM. In series [7] (controls 5), this molecule yielded a Deaggregation rate of 3 arbitrary units. Besides, the Maximum aggregation in series [7] (controls 40) was 28 % of maximum aggregation. This molecule also yielded an Aggregation rate in series [7] (controls 56) of 32 arbitrary units.

`CCCCCC(/C=C/n1ccnc1)OC(C)=O` (stereo not drawn) [D]: the IC50 in series [1] (platelet suspension) was 1500 nM.
